In the oligonucleotide strings, read from the 5' end, every base follows the letter of its sugar. An asterisk marks phosphorothioate; unmarked linkages are phosphodiester. Other units and linkages are bracketed, terminal groups are in braces. A string of capitals states the bases alone. d = 2'-deoxy (DNA)
Key:
[1] = cited from earlier work
HMGA1 = molecular target: T1, HMGA1 (Homo sapiens, UniProt P17096); assay: Electrophoretic mobility shift assay (EMSA), HMGA1 competitive binding against ATf10 DNA; settings: for formation of HMGA/ATf10 DNA complex in presence of competitor DNA: equal amounts of ATf10 and CG10 or Mix10, ATf10 DNA:HMGA1 1:1
T1 construct: The cDNA for full length HMGA1b was cloned into pET-30b; made in house; host or cells: Escherichia coli BL21 (DE3)
T1 sequence (P17096 1-96 isoform P17096-2): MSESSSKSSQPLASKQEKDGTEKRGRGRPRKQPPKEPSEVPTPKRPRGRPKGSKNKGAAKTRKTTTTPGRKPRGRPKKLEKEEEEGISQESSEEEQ
Protocol: The cDNA for full length HMGA1b was cloned into pET-30b and overexpressed in Eschericia coli (E. Coli) BL21 (DE3). E. coli expressing HMGA1b was cultured at 37° C. to an OD600 measurement of 0.8 to 1.0 OD600. Protein expression was induced by the addition of 1 mM IPTG and shaking at 37° C. for 4-6 hours. HMGA1 was purified by trichloroacetic acid precipitation as described in R. Reeves, HMGA proteins: isolation, biochemical modifications, and nucleosome interactions. Methods in enzymology 375 (2004) 297-322, the disclosure of which is incorporated herein by reference. Overexpressed HMGA1b was further purified with a Sephadex G-25 column in H2O and lyophilized using a standard freezedrying procedure. The samples were resolublized in a 25 mM Tris-HCl (pH 6.5), 50 mM NaCl buffer for analysis.
The following 28-mer oligonucleotides were purchased from Integrated DNA Technologies (Coralville, Iowa, USA): ATf10 5′-(56FAM)-[…]-3′ (SEQ ID NO: 4), and ATs10 5′-GGGT*T*T*T*T*T*T*T*T*T*[…]-3′ (SEQ ID NO: 5) (the “*” indicates the location of phosphorothioate linkage). ATf10 contained a fluorescence tag to serve as a marker for later analysis. […] AT10f was annealed with its complementary strand without a fluorescence tag, and ATs10 was annealed with a strand with no sulfur substitution. […]
The HMGA protein samples were prepared in 25 mM Tris-HCl (pH 6.5), 50 mM NaCl, and the concentrations determined based on UV […] absorbance (ε=38,200 mol-1 cm-1). […] The DNA was detected at 495 nm using the VersaDoc™ Imaging System Model 3000 from BIO-RAD Laboratories, Inc. of Hercules, Calif. […]
In order to determine if HMGA1 DNA binding activity was affected by sulfur substitution in the DNA phosphodiester backbone, fluorescence labeled DNA (ATf10 DNA) was used in competitive binding assays against various sulfur substituted DNAs where different ratios of ATf10 DNA and ATs10 DNA were added to a constant amount of purified HMGA1 (FIG. 1A). […]
Since ATs10 DNA has no fluorescence label, no signal could be detected when only ATs10DNA was added to HMGA1 (FIG. 1A, lane 9). […]

For NC(=O)OC[C@H]1c2c(O)cc(C=O)cc2N2CC3N[C@@H]3[C@]1(O)O2 (stereo partly shown) [FR900482], the toxicity in humans [1] is listed as “high toxicity”.
In the case of “Mix10: negative control DNA, random sequence of A, T, C, G with no AT-stretch (SEQ ID NO: 7) (DNA GGGCGTGACTGAGCGCGGCGGCCCCGCG; DNA, all phosphodiester, methylation of C not given here)”, the “formation of HMGA/ATf10 DNA complex in presence of competitor DNA” value (HMGA1) is reported as “still observed”.
In the case of “ATs10: 28-mer oligonucleotide with phosphorothioate linkages in the T tract (SEQ ID NO: 5) (DNA dGdGdGdT*dT*dT*dT*dT*dT*dT*dT*dT*dT*dCdGdCdGdGdCdGdGdCdCdCdCdGdCdG; annealed with complementary strand)”, the “ATf10 DNA detected in the unshifted position” value (HMGA1; 1:1 ratio of ATf10 DNA to ATs10 DNA, ATf10 DNA to HMGA1 1:1.5 (FIG. 1A, lane 4)) is reported as “approximately half”.
In the case of “CG10: negative control DNA containing only a mixture of C and G (SEQ ID NO: 6) (DNA GGGCCCCCCCCCCCGCGGCGGCCCCGCG; DNA, all phosphodiester, methylation of C not given here)”, the “formation of HMGA/ATf10 DNA complex in presence of competitor DNA” value (HMGA1) is reported as “still observed”.

— patent US9492470B2, “Use of HMGA-targeted phosphorothioate DNA aptamers to suppress carcinogenic activity and increase sensitivity to chemotherapy agents in human cancer cells” (MIAMI UNIVERSITY, priority 2012, dated 2016)
